Laboratory results from ChEMBL document CHEMBL3860109, “Benzenesulfonamides Incorporating Flexible Triazole Moieties Are Highly Effective Carbonic Anhydrase Inhibitors: Synthesis and Kinetic, Crystallographic, Computational, and Intraocular Pressure Lowering Investigations” (J Med Chem, 2016).
pKi: −log10 of the molar value. The source made the active and inactive calls. The rule behind the calls is not given here.

Experiments:
Carbonic anhydrase 9 = Carbonic anhydrase 9 (Homo sapiens, UniProt Q16790)
Description: Inhibition of human carbonic anhydrase 9 pre-incubated for 15 mins by stopped flow carbon dioxide hydrase assay

Oryctolagus cuniculus [1] = species: Oryctolagus cuniculus; assay: Reduction in intraocular pressure in New Zealand albino rabbit model of hypertonic saline-induced ocular hypertension at 1 to 2% instilled immediately after hypertonic saline injection measured after 4 hrs post dose; type: functional; conditions: Eye
Oryctolagus cuniculus [2] = species: Oryctolagus cuniculus; assay: Reduction in intraocular pressure in New Zealand albino rabbit model of hypertonic saline-induced ocular hypertension at 1 to 2% instilled immediately after hypertonic saline injection measured after 2 hrs post dose; type: functional, Eye
Carbonic anhydrase 1 = Carbonic anhydrase 1 (Homo sapiens, UniProt P00915); assay: Inhibition of human carbonic anhydrase 1 pre-incubated for 15 mins by stopped flow carbon dioxide hydrase assay
Sequence of Carbonic anhydrase 1 (P00915 whole entry): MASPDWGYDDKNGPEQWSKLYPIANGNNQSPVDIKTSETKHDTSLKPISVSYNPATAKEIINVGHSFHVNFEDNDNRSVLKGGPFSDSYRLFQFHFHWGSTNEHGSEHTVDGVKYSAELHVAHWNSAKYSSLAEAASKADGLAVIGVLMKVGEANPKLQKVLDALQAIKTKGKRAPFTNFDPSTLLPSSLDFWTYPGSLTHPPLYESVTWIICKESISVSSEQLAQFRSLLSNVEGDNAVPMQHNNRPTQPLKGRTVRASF

Carbonic anhydrase 2 = Carbonic anhydrase 2 (Homo sapiens, UniProt P00918); assay: Inhibition of human carbonic anhydrase 2 pre-incubated for 15 mins by stopped flow carbon dioxide hydrase assay

Row | SMILES | pKi (Carbonic anhydrase 9) | also measured
1 | COc1ccc(OCc2cn(-c3ccc(S(N)(=O)=O)cc3)nn2)cc1 | 7.84 | 
2 | COc1cccc(OCc2cn(-c3ccc(S(N)(=O)=O)cc3)nn2)c1 | 8.03 | 
3 | NS(=O)(=O)c1ccc(OCc2cn(-c3ccccc3)nn2)cc1 | 8.59 | 
4 | NS(=O)(=O)c1ccc(OCc2cn(-c3ccc(F)cc3)nn2)cc1 | 7.79 | 
5 | NS(=O)(=O)c1ccc(OCc2cn(-c3ccc(O)cc3)nn2)cc1 | 7.73 | 
6 | NS(=O)(=O)c1ccc(-n2cc(COc3ccccc3)nn2)cc1 | 8.68 | Activity (Oryctolagus cuniculus [1]): Active; Activity (Oryctolagus cuniculus [2]): 3 mmHg
7 | NS(=O)(=O)c1ccc(-n2cc(CNc3ccccc3)nn2)cc1 | 8.66 | Activity (Oryctolagus cuniculus [2]): 2 mmHg
8 | NS(=O)(=O)c1ccc(-n2cc(-c3ccccc3)nn2)cc1 |  | pKi (Carbonic anhydrase 1): 6.47
9 | NS(=O)(=O)c1ccc(OCc2cn(-c3ccc(C(F)(F)F)cc3)nn2)cc1 | 7.63 | pKi (Carbonic anhydrase 1): < 5.00

More lines, main results first:

Row | pKi (Carbonic anhydrase 9) | SMILES | also measured
10 | 8.64 | Cc1cccc(OCc2cn(-c3ccc(S(N)(=O)=O)cc3)nn2)c1 | 
11 | 7.76 | NS(=O)(=O)c1ccc(-n2cc(COc3cccnc3)nn2)cc1 | 
12 | 7.92 | NS(=O)(=O)c1ccc(-n2cc(CN(Cc3cn(-c4ccc(S(N)(=O)=O)cc4)nn3)c3ccccc3)nn2)cc1 | pKi (Carbonic anhydrase 1): < 5.00; pKi (Carbonic anhydrase 2): < 5.00
13 | 7.69 | COc1cccc(-n2cc(COc3ccc(S(N)(=O)=O)cc3)nn2)c1 | 
14 | 8.62 | NS(=O)(=O)c1ccc(-n2cc(CSc3ccccc3)nn2)cc1 | 
